{"source": "patent US20030095953A1", "about": "“METHODS OF REVERSING DRUG RESISTANCE IN CANCER CELLS” (priority 1999, published 2003)", "format_in_all_cases": "cell-based, human", "key": {"[1]": {"test_system": "MCF-7-AdrR cells", "test": "Cytotoxicity assay in MCF-7-AdrR cells", "conditions": "72 hr exposure, read-out: EC50 (amount of drug provoking 50% cell death)", "experimental": "(§1) Cytotoxicity Assay. Assays were performed as previously described (Liu, Y. Y., et al., (1999) J. Biol. Chem. 274, 1140-1146; Lavie, Y. et al., (1997) J. Biol. Chem. 272, 1682-1687). Briefly, cells were seeded in 96-well plates (2,000 cells/well), in 0.1 ml RPMI-1640 medium containing 10% FBS, and cultured at 37° C. for 24 hr before addition of drug. Drugs were added in FBS-free medium (0.1 ml), and cells were cultured at 37° C. for the indicated periods. Drug cytotoxicity was determined using the Promega 96 Aqueous cell proliferation assay kit (Promega, Madison, Wis.). Absorbance at 490 nm was recorded using a Microplate Fluorescent Reader, model FL600 (Bio-Tek, Winooski, Vt.)."}, "[2]": {"test_system": "MCF-7-AdrR/asGCS cells", "test": "Cytotoxicity assay in MCF-7-AdrR/asGCS cells", "conditions": "72 hr exposure; for EC50: Homo sapiens, MCF-7-AdrR/asGCS cells, read-out: EC50 (amount of drug provoking 50% cell death)", "experimental": "as §1"}, "[3]": {"test_system": "MCF-7-AdrR/asGCS cells", "test": "Analysis of ceramide in MCF-7-AdrR/asGCS cells", "experimental": "(§2) Analysis of Ceramide. Analysis was performed as previously described (Liu, Y. Y.et al., (1999) J. Biol. Chem. 274, 1140-1146, Lavie, Y., et al., (1996) J. Biol. Chem. 271, 19530-19536). Cells were seeded in 6-well plates (60,000 cells/well) in 10% FBS RPMI-1640 medium. After 24 hr, cells were shifted to 5% FBS medium with or without adriamycin, and grown for the indicated times. Cellular lipids were radiolabeled by adding [3H]palmitic acid (2.5 μCi/ml culture medium) for 24 hr. After removal of medium, cells were rinsed twice with PBS (pH 7.4), and total lipids were extracted as described (Lavie, Y. et al.,. (1996) J. Biol. Chem. 271, 19530-19536). The resulting organic lower phase was withdrawn and evaporated under a stream of nitrogen. Lipids were resuspended in 100 μl of chloroform/methanol (1:1, v/v), and aliquots were applied to TLC plates. Ceramide was resolved using a solvent system containing chloroform/acetic acid (90:10, v/v). Commercial lipid standards were co-chromatographed. After development, lipids were visualized by iodine vapor staining, and the ceramide area was scraped into 0.5 ml water. EcoLume counting fluid (4.5 ml) was added, the samples were mixed, and radioactivity was quantitated by liquid scintillation spectrometry."}, "[4]": {"test_system": "caspase-3", "test": "Caspase-3 assay (DEVD-AFC cleavage) in MCF-7-AdrR cells", "conditions": "10 μM, 48 hr", "experimental": "(§3) Caspase-3 Assay. Caspase-3 activity was assayed by DEVD-AFC cleavage, using the ApoAlert Caspase-3 assay kit (Clontech, Palo Alto, Calif.). The assay was performed as previously described (Liu, Y. Y., et al., (1999) Exp. Cell Res. 252, 464-470). Cells were seeded in 100-mm dishes (500,000 cells/dish) in 10% FBS RPMI-1640 medium. After 24 hr, cells were shifted to 5% FBS RPMI-1640 medium without or with adriamycin, and grown for 24 and 48 hr. Following harvest, cells ([…]) were lysed on ice for 10 min with 50 μl of lysis buffer, and cell debris was removed by centrifugation at 4° C., 10,000×g, for 5 min. The soluble fraction was incubated with 50 μM conjugated substrate DEVD-AFC in a 100 μl reaction volume at 37° C., for 60 min. The free AFC fluoresce was measured at λexcitation 400 nm and λemission 505 nm using a FL600 Microplate Fluorescence Reader. The caspase-3 inhibitor, acetyl-Asp-Glu-Val-Asp-aldehyde was used to exclude nonspecific background in the enzymatic reaction."}, "[5]": {"test_system": "caspase-3", "test": "Caspase-3 assay (DEVD-AFC cleavage) in MCF-7-AdrR/asGCS cells", "conditions": "for increase of caspase-3 activity over control: MCF-7-AdrR/asGCS cells, 10 μM; for caspase-3 activity in GCS antisense-transfected cells vs parental cells: adriamycin 10 μM", "experimental": "as §3"}, "[6]": {"test_system": "MCF-7-AdrR cells", "test": "Analysis of ceramide in MCF-7-AdrR cells", "conditions": "48 hr", "experimental": "as §2"}}, "note": "Where a name gives a salt, the structure may show the parent alone. Read-outs that look alike come from different tables or passages of the source."}
{"smiles": "CCCCCCCCCCCCC/C=C/[C@@H](O)[C@H](CO)NC(=O)CCCCC", "note": "[C6-ceramide, N-hexanoylsphingosine]", "values": [{"measurement": "EC50", "setting": "[1]; Homo sapiens, 72 h", "result": "9.6 ± 0.5", "unit": "µM"}, {"measurement": "decrease of EC50 in MCF-7-AdrR/asGCS vs MCF-7-AdrR cells", "setting": "[2]", "result": 2.4, "unit": "fold"}, {"measurement": "EC50", "setting": "[2]", "result": "4 ± 0.03", "unit": "µM"}]}
{"smiles": "COc1cccc2c1C(=O)c1c(O)c3c(c(O)c1C2=O)C[C@@](O)(C(=O)CO)C[C@@H]3O[C@H]1C[C@H](N)[C@H](O)[C@H](C)O1", "note": "[adriamycin, doxorubicin hydrochloride]", "values": [{"measurement": "EC50", "setting": "[1]; hydrochloride", "result": 10, "unit": "µM"}, {"measurement": "EC50", "setting": "[1]; Homo sapiens, 72 h", "result": "12.4 ± 0.7", "unit": "µM"}, {"measurement": "decrease of EC50 in MCF-7-AdrR/asGCS vs MCF-7-AdrR cells", "setting": "[2]", "result": 28, "unit": "fold"}, {"measurement": "EC50", "setting": "[2]", "result": "0.44 ± 0.01", "unit": "µM"}, {"measurement": "enhancement of ceramide levels", "setting": "[3]; adriamycin 0.5 μM, 48 hr", "result": 181, "unit": "%"}, {"measurement": "enhancement of ceramide levels", "setting": "[3]; adriamycin 1.0 μM, 48 hr", "result": 188, "unit": "%"}, {"measurement": "increase of ceramide levels", "setting": "[3]; adriamycin 2.5 μM, 24 hr", "result": 200, "unit": "%"}, {"measurement": "increase of ceramide levels", "setting": "[3]; adriamycin 2.5 μM, 48 hr", "result": 250, "unit": "%"}, {"measurement": "enhancement of ceramide levels", "setting": "[3]; adriamycin 2.5 μM, 48 hr (dose series)", "result": 246, "unit": "%"}, {"measurement": "increase of caspase-3 activity", "setting": "[4]", "result": 160, "unit": "%"}, {"measurement": "increase of caspase-3 activity over control", "setting": "[5]; 24 hr", "result": 290, "unit": "%"}, {"measurement": "increase of caspase-3 activity over control", "setting": "[5]; 48 hr", "result": 980, "unit": "%"}, {"measurement": "caspase-3 activity in GCS antisense-transfected cells vs parental cells", "setting": "[5]; 24 hr", "result": 3, "unit": "fold"}, {"measurement": "caspase-3 activity in GCS antisense-transfected cells vs parental cells", "setting": "[5]; 48 hr", "result": 6, "unit": "fold"}, {"measurement": "increase of ceramide levels above control", "setting": "[6]; adriamycin 2.5 μM", "result": 16, "unit": "%"}, {"measurement": "ceramide level response", "setting": "[6]; adriamycin 0.5-2.5 μM", "result": "minimal response"}]}
